In patent US11542313B2, “Incretin analogs and uses thereof” (Eli Lilly and Company, priority 2017, dated 2023):
Values joined by “and” are separate entries in the source; they are usually repeats but may differ in a detail not shown here. Equal entries are not always repeated. Marks after values point to notes of the source that are not given here. *1 amine or outer side, *2 acyl side, *3 side chain or, on linkers, in order; H or OH if unused. Where a SMILES comes first, the peptide text is derived from it. Side-chain parts run from the residue outwards. [ ]: non-standard residue; d: D form. The star is where a group is joined. C20 diacid = O=C(O)CCCCCCCCCCCCCCCCCCC(=O)*; γGlu = O=C(O)[C@H](CCC(=O)[*:2])N[*:1]; AEEA = NCCOCCOCC(=O)O; Aib = CC(C)(N)C(=O)O

What was measured:
[1] = system: male Wistar rats; test: Intravenous glucose tolerance test (ivGTT), insulin secretion in male Wistar rats; assay type: in vivo, rat; set-up: unit not given here; settings: semaglutide 10 nmol/kg positive control in the run of the Example, mean ± SEM, n=6
Method: An intravenous glucose tolerance test (ivGTT) in rats (male Wistar) is used to estimate insulinotropic potency of the exemplary analogs. The GLP-1 RA semaglutide is used as a positive control. Rats with surgically implanted cannulas in the jugular vein and carotid artery (Envigo, Indianapolis, Ind.; 280-320 grams) are housed one per cage in polycarbonate cages with filter tops. Rats are maintained on a 12-hour light-dark cycle at 21° C. and receive 2014 Teklad Global Diet (Envigo, Indianapolis) and deionized water ad libitum. Rats are randomized by body weight and dosed 1.5 mL/kg subcutaneous (sc) with exemplary analogs 16 hours prior to glucose administration, and then fasted. Stock concentrations of […] of the exemplary analogs are diluted in Tris buffer pH 8.0 to 6.667 nMol/mL, 2.0 nMol/mL, 0.667 nMol/mL, 0.2 nMol/mL; doses tested are vehicle, 1, 3 and 10 nMol/kg, and, in some cases 0.3 and 30 nMol/kg. Semaglutide is used as positive control, and its insulinotropic effects are measured both in its own test (vehicle and 1, 3, 10 and 30 nMol/kg doses) and in connection with each run of the exemplary analogs (10 nMol/kg dose).
A time 0 blood sample is collected into EDTA tubes after which glucose is administered ([…], 5 mL/kg). […] Plasma insulin is determined using an electrochemiluminescence assay (Meso Scale, Gaithersburg, Md.). […]

[2] = system: diet-induced obese (DIO) C57BL/6 mice; test: Diet-induced obese C57BL/6 mice, 15-day study; assay type: in vivo, mouse; settings: for Body weight % change: days 1 to 15, DIO mice
Method: The exemplary incretin analogs as described herein are proposed as a treatment not only for diabetes but also for metabolic syndrome, which is a collection of co-morbidities (dyslipidemia, obesity, hepatic steatosis, etc.) associated with insulin resistance and diabetes. To investigate the effects of the exemplary analogs on parameters such as weight loss, metabolism, body composition and hepatic steatosis, they were dosed to C57BL/6 diet-induced obese (DIO) mice. These animals, although not diabetic, display insulin resistance, dyslipidemia and hepatic steatosis, all characteristics of metabolic syndrome, after being placed on a high-fat diet for 18 weeks.
Specifically, DIO male C57BL/6 mice 24 to 25 weeks old maintained on a calorie-rich diet are used in the following studies. Mice are individually housed in a temperature-controlled (24° C.) facility with 12-hour light/dark cycle (lights on 22:00) and free access to food (TD95217) and water. After a minimum of 2 weeks acclimation to the facility, the mice are randomized according to their body weight, so each experimental group of animals would have similar body weight. The body weights range from 40 to 51 g.
All groups contain 5-6 mice. Vehicle, exemplary analogs dissolved in vehicle (40 mM Tris-HCl at pH 8.0), and semaglutide dissolved in vehicle are administered by subcutaneous (SC) injection (10 mL/kg) to ad libitum fed DIO mice 30 to 90 minutes prior to the onset of the dark cycle every 3 days for 15 days. SC injections are made on Day 1, 4, 7, 10 and 13. Body weight and food intake are measured daily throughout the study.
Absolute changes in body weight are calculated by subtracting the body weight of the same animal prior to the first injection of vehicle, analog or semaglutide. On Days 0 and 15, total fat mass is measured by nuclear magnetic resonance (NMR) using an Echo Medical System Instrument (Houston, Tex.). On Day 15, animals are sacrificed prior to dark photoperiod, and the livers are removed and frozen. Liver triglycerides, determined from homogenates of livers collected at sacrifice, and plasma cholesterol are measured on a Hitachi Modular P clinical analyzer.
Data are presented as mean±SEM of 5-6 animals per group in Tables 7 and 8 below. Statistical analysis is performed using repeated measures ANOVA, followed by Dunnett's method for multiple comparisons. Significant differences are identified at p<0.05.

[3] = rat, in vivo, sc, 100 nmol/kg
Method: (§3) The pharmacokinetics of the exemplary analogs are evaluated following a single subcutaneous administration of 100 nM/kg to male Sprague Dawley rats. Blood samples are collected over 120 hours, and resulting individual plasma concentrations are used to calculate pharmacokinetic parameters. Peptide plasma (K3 EDTA) concentrations are determined using a qualified LC/MS method that measured the intact mass of the analog. Each peptide and an analog as an internal standard are extracted from 100% specie specified plasma using methanol with 0.1% formic acid. A Thermo Q-Exactive, High Resolution Instrument, and a Thermo Easy Spray PepMap are combined for LC/MS detection.

[4] = target: T1, hGIPR (Homo sapiens, UniProt P48546); test: cAMP assay in HEK293 cells expressing hGIPR, 0.1% casein; assay type: cell-based; settings: in the presence of 0.1% casein; read-out: cAMP EC50, GIPR
T1 construct: expressed in transfected cells; host or cells: HEK293
T1 sequence (P48546 22-466): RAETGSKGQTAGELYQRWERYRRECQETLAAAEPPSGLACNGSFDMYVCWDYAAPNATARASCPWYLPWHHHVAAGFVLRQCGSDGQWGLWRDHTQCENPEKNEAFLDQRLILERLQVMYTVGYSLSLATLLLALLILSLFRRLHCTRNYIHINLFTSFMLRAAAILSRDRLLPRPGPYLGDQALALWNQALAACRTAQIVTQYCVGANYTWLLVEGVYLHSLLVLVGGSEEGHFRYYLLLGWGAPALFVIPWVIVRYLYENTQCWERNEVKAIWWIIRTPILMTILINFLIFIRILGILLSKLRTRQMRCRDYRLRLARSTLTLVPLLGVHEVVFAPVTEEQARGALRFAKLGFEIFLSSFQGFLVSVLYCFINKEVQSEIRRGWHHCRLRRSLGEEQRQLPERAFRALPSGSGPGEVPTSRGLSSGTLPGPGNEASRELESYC

[5] = target: T2, GLP-1 receptor (GLP-1R) (Homo sapiens, UniProt P43220); test: Radioligand competition binding (SPA), human GLP-1R membranes; settings: HEK293 membranes, SPA, bacitracin present; mean; read-out: Ki, GLP-1R
T2 construct: expressed in transfected cells; host or cells: HEK293 (membranes)
T2 sequence (P43220 24-463): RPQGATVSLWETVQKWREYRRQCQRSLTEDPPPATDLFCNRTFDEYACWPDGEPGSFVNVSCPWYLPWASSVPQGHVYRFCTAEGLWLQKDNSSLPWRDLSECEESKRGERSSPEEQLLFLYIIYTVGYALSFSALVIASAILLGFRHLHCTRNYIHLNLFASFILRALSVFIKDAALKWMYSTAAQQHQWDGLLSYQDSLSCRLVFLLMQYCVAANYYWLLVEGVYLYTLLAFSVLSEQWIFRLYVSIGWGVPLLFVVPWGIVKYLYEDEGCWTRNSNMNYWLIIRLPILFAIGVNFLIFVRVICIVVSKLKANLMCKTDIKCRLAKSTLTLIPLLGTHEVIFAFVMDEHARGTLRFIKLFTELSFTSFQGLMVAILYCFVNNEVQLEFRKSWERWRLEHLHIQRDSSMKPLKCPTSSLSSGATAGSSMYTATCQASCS
Source text: (§1) Radioligand competition binding assays are run to determine the equilibrium dissociation constant for exemplary compounds and comparator molecules.
(§2) Competition curves are plotted as the percent specific inhibition (y-axis) versus log concentration of compound (x-axis) and analyzed using a four parameter nonlinear regression fit with variable slope (ABase or Genedata).

[6] = target: hGLP-1R (Homo sapiens, UniProt P43220); test: cAMP assay in HEK293 cells expressing hGLP-1R, 0.1% casein; assay type: cell-based; settings: in the presence of 0.1% casein; read-out: cAMP EC50, GLP-1R
Sequence of hGLP-1R (P43220 24-463): as above

[7] = target: T3, human GIP receptor (GIPR) (Homo sapiens, UniProt P48546); test: Radioligand competition binding (SPA), human GIPR membranes; settings: HEK293 membranes, SPA, bacitracin present; mean; read-out: Ki, GIPR
T3 construct: expressed in transfected cells; host or cells: HEK293 (membranes)
T3 sequence (P48546 22-466): T1 sequence (P48546 22-466)
Source text: as §1, §2

[8] = in vivo; settings: male, Sprague-Dawley, rat, sc, 100 nmol/kg
Method: as §3

[9] = target: T4, hGcgR (Homo sapiens, UniProt P47871); test: cAMP assay in HEK293 cells expressing hGcgR, 0.1% casein; assay type: cell-based; settings: in the presence of 0.1% casein; read-out: cAMP EC50, GcGR
T4 construct: expressed in transfected cells; host or cells: HEK293
T4 sequence (P47871 26-477): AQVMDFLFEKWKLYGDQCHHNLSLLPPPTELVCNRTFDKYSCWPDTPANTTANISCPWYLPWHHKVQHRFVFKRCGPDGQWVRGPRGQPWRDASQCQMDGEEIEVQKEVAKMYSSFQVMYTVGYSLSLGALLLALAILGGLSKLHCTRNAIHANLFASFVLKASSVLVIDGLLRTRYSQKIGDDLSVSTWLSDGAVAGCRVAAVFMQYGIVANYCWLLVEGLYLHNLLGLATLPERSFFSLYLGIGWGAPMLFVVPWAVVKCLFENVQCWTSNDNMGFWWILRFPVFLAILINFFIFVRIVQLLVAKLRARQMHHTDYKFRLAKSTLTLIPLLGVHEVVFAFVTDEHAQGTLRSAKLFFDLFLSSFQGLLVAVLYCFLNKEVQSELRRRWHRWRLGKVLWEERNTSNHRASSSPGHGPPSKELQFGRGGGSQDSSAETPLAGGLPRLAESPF

[10] = target: T5, human glucagon receptor (GcgR) (Homo sapiens, UniProt P47871); test: Radioligand competition binding (SPA), human GcgR membranes; settings: HEK293 membranes, SPA, bacitracin present; mean; read-out: Ki, GcgR
T5 construct: expressed in transfected cells; host or cells: HEK293 (membranes)
T5 sequence (P47871 26-477): as above
Source text: as §1, §2

[11] = 3 nmol/kg, after fifteen days, DIO mice, mean ± SEM

Compound | AUC30min of Insulin after a Bolus IV Glucose [1] | Body weight % change ([2]; 3 nmol/kg SC every 3 days) | ALT [2, 11] | Cholesterol [2, 11] | Glucose [2, 11] | Liver Triglycerides [2, 11] | Plasma Insulin [2, 11] | Body weight % change ([2]; 10 nmol/kg SC every 3 days) | Body weight % change ([2]; 30 nmol/kg SC every 3 days) | AUCINF_D_obs [3] | EC50 [4] | Ki [5] | EC50 [6] | Ki [7] | CL/F [8] | Tmax [8] | half-life [8] | EC50 [9] | Ki [10]
semaglutide | 44.7 +/− 3.7* and 55.1 +/− 9.0* and 40.2 +/− 2.5* and 38.4 +/− 6.0* and 56.3 +/− 7.7* and 48.4 +/− 6.6* and 51.86 +/− 6.7* and 45.6 +/− 6.6* | −2.62 ± 0.49% | 99.8 ± 14.84 IU/L | 218.0 ± 9.23 mg/dL | 137.8 ± 7.34 mg/dL | 226.4 ± 23.8 mg/g tissue | 4196 ± 1014 pg/mL | −10.31 ± 1.25% | −15.49 ± 2.44% | – | – | – | – | – | – | – | – | – | –
CC[C@H](C)[C@H](NC(=O)[C@H](Cc1ccccc1)NC(=O)[C@H](C)NC(=O)C(C)(C)NC(=O)[C@H](CCC(N)=O)NC(=O)[C@H](C)NC(=O)[C@H](CCCCNC(=O)COCCOCCNC(=O)CC[C@H](NC(=O)CCCCCCCCCCCCCCCCCCC(=O)O)C(=O)O)NC(=O)[C@H](CCCCN)NC(=O)[C@H](CC(=O)O)NC(=O)[C@H](CC(C)C)NC(=O)[C@H](CC(C)C)NC(=O)[C@@H](NC(=O)[C@H](CO)NC(=O)[C@H](Cc1ccc(O)cc1)NC(=O)[C@H](CC(=O)O)NC(=O)[C@H](CO)NC(=O)[C@@H](NC(=O)[C@H](Cc1ccccc1)NC(=O)[C@@H](NC(=O)CNC(=O)[C@H](CCC(N)=O)NC(=O)C(C)(C)NC(=O)[C@@H](N)Cc1ccc(O)cc1)[C@@H](C)O)[C@@H](C)O)[C@@H](C)CC)C(=O)N[C@@H](CCC(=O)O)C(=O)N[C@@H](Cc1ccc(O)cc1)C(=O)N[C@@H](CC(C)C)C(=O)N[C@@H](CC(C)C)C(=O)N[C@@H](C)C(=O)NC(C)(C)C(=O)NCC(=O)N1CCC[C@H]1C(=O)N[C@@H](CO)C(=O)N[C@@H](CO)C(=O)NCC(=O)N[C@@H](C)C(=O)N1CCC[C@H]1C(=O)N1CCC[C@H]1C(=O)N1CCC[C@H]1C(=O)N[C@@H](CO)C(N)=O [Example 4] (H-Y[Aib]QGTFTSDYSILLDKK([AEEA-γGlu-C20 diacid])AQ[Aib]AFIEYLLA[Aib]GPSSGAPPPS-NH2) | – | – | – | – | – | – | – | – | – | 140 hr*kg*nmol/L/nmol | 0.0648 nM | 3.54 nM | 0.18 nM | 0.0374 nM | 0.12 mL/min/kg | 16 h | 19.9 h | 0.0674 nM | 2.55 nM
